We go through four compounds from ChEMBL document CHEMBL6078611, “A potent GPX4 degrader to induce ferroptosis in HT1080 cells” (Eur J Med Chem, 2024).

For data set [1], the system named is HT-1080. As to the kind of experiment: Antiproliferative activity against human HT-1080 cells assessed as reduction in cell viability incubated for 48 hrs by CCK-8 assay. It counts as functional, cell-based. Particulars: HT-1080, 48 h. In general terms: Tetrazolium assays rely on reduction of a dye to a coloured formazan, in cell work by metabolically active cells.

The nature of data set [2]: Cytotoxicity against HEK293T cells assessed as reduction in cell viability incubated for 48 hrs by CCK-8 assay. It counts as toxicity, cell-based, HEK-293T. The note with it: human.
Data set [3] concerns the target T1, Baculoviral IAP repeat-containing protein 2/Phospholipid hydroperoxide glutathione peroxidase GPX4 (Homo sapiens, UniProt Q13490+P36969). As to the kind of experiment: Protac activity at cIAP/GPX4 in human HT-1080 cells assessed as degradation of GPX4 at 3 uM incubated for 4 hrs by Western blot analysis. It counts as cell-based.
Target sequence in this assay (P36969 whole entry, looked up): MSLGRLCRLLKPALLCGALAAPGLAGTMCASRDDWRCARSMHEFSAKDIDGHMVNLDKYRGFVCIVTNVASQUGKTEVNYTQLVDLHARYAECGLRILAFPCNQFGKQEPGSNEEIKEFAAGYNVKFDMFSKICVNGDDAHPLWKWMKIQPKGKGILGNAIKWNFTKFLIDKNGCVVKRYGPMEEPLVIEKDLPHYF
Target sequence in this assay (Q13490 whole entry, looked up): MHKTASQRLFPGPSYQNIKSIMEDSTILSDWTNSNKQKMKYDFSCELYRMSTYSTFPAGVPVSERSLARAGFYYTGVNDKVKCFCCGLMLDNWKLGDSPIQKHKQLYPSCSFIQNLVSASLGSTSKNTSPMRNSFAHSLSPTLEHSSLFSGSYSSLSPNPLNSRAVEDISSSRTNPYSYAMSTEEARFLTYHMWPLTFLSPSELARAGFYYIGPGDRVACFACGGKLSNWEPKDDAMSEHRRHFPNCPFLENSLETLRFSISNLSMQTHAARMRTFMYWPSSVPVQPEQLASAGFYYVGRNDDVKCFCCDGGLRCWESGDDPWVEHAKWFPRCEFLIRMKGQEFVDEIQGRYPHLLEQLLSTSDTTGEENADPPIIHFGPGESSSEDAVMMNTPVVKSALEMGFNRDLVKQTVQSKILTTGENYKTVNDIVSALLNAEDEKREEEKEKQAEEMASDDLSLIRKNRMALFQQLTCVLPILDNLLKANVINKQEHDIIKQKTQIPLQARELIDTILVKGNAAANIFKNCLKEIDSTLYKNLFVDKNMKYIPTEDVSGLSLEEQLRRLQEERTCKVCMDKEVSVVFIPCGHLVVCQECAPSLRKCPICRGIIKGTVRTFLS
The target in data set [4] is T1, Baculoviral IAP repeat-containing protein 2/Phospholipid hydroperoxide glutathione peroxidase GPX4. The data set can be described thus: Protac activity at cIAP/GPX4 in human HT-1080 cells assessed as degradation of GPX4 incubated for 48 hrs by Western blot analysis. The format is cell-based. On the technique in general: In western blotting, separated proteins are transferred to a membrane and probed.
Target sequence in this assay (Q13490 whole entry): as the sequence (Q13490 whole entry, looked up) above
Target sequence in this assay (P36969 whole entry): as the sequence (P36969 whole entry, looked up) above

The target is the same in data set [5]. As to the kind of experiment: Protac activity at cIAP/GPX4 in human HT-1080 cells assessed as degradation of GPX4 at 10 uM incubated for 48 hrs by Western blot analysis relative to control. It counts as cell-based.
Target sequence in this assay (P36969 whole entry, looked up): as above
Target sequence in this assay (Q13490 whole entry, looked up): as the sequence (Q13490 whole entry, looked up) above
In data set [6] the test system is HT-1080. The data set can be described thus: Protac activity at MDM2/GPX4 in human HT-1080 cells assessed as degradation of GPX4 at 10 uM by Western blot analysis relative to control. The format is cell-based.
Data set [7] relates to HT-1080. As to the kind of experiment: Antiproliferative activity against human HT-1080 cells assessed as reduction in cell viability at 7.5 uM incubated for 48 hrs in presence of DFOM by CCK-8 assay. The format is functional, cell-based.
The subject of data set [8] is HT-1080. The data set can be described thus: Induction of ferroptosis in human HT-1080 cells assessed as lipid peroxide accumulation at 10 uM in presence of DFOM by BODIPY 581/591C11 staining based analysis. It counts as functional, cell-based.
The target of data set [9] is T1, Baculoviral IAP repeat-containing protein 2/Phospholipid hydroperoxide glutathione peroxidase GPX4. As to the kind of experiment: Protac activity at cIAP/GPX4 in human HT-1080 cells assessed as degradation of GPX4 at 5 uM preincubated with cIAP ligand B4 for 4 hrs followed by compound addition and measured after 48 hrs by Western blot analysis. The format is cell-based.
Target sequence in this assay (P36969 whole entry, looked up): as the sequence (P36969 whole entry, looked up) above
Target sequence in this assay (Q13490 whole entry, looked up): as the sequence (Q13490 whole entry, looked up) above

Data set [10] relates to HT-1080. As to the kind of experiment: Induction of ferroptosis in human HT-1080 cells assessed as lipid peroxide accumulation by BODIPY 581/591C11 staining based analysis. It counts as functional, cell-based. Particulars: dose 0.6-10 µM.
The test system of data set [11] is Mitochondrial membrane. As to the kind of experiment: Induction of mitochondrial membrane potential loss in human HT-1080 cells at 10 uM incubated for 48 hrs in presence of NAC by JC-1 staining based flow cytometry analysis. The format is cell membranes. Background: Flow cytometry measures light scatter and fluorescence of single cells or particles in a stream.

Data set [12] relates to Mitochondrial membrane. As to the kind of experiment: Induction of mitochondrial membrane potential loss in human HT-1080 cells incubated for 48 hrs by JC-1 staining based flow cytometry analysis. The format is cell membranes. The note with it: dose 0.6-10 µM.
For data set [13], the target named is T1, Baculoviral IAP repeat-containing protein 2/Phospholipid hydroperoxide glutathione peroxidase GPX4. The data set can be described thus: Protac activity at cIAP/GPX4 in human HT-1080 cells assessed as degradation of GPX4 at 5 uM preincubated with chloroquine for 4 hrs followed by compound addition and measured after 48 hrs by Western blot analysis. It counts as cell-based.
Target sequence in this assay (P36969 whole entry, looked up): as the sequence (P36969 whole entry, looked up) above
Target sequence in this assay (Q13490 whole entry, looked up): as the sequence (Q13490 whole entry, looked up) above

Data set [14] has the same target. As to the kind of experiment: Protac activity at cIAP/GPX4 in human HT-1080 cells assessed as degradation of GPX4 at 5 uM preincubated with MG132 for 4 hrs followed by compound addition and measured after 48 hrs by Western blot analysis. The format is cell-based.
Target sequence in this assay (P36969 whole entry, looked up): as the sequence (P36969 whole entry, looked up) above
Target sequence in this assay (Q13490 whole entry, looked up): as the sequence (Q13490 whole entry, looked up) above
The target is the same in data set [15]. The data set can be described thus: Protac activity at cIAP/GPX4 in human HT-1080 cells assessed as degradation of GPX4 at 5 uM preincubated with RSL3 for 4 hrs followed by compound addition and measured after 48 hrs by Western blot analysis. It counts as cell-based.
Target sequence in this assay (P36969 whole entry, looked up): as the sequence (P36969 whole entry, looked up) above
Target sequence in this assay (Q13490 whole entry, looked up): as the sequence (Q13490 whole entry, looked up) above
Data set [16] relates to HT-1080. The data set can be described thus: Induction of ferroptosis in human HT-1080 cells assessed as lipid peroxide accumulation at 10 uM in presence of FeCl2 by BODIPY 581/591C11 staining based analysis. It counts as functional, cell-based.
In data set [17] the target is T1, Baculoviral IAP repeat-containing protein 2/Phospholipid hydroperoxide glutathione peroxidase GPX4. The data set can be described thus: Protac activity at cIAP/GPX4 in human HT-1080 cells assessed as degradation of GPX4 at 5 uM measured upto 12 hrs after compound washout by Western blot analysis. The format is cell-based.
Data set [18] shares this target. As to the kind of experiment: Protac activity at cIAP/GPX4 in human HT-1080 cells assessed as degradation of GPX4 at 5 uM by Western blot analysis. It counts as cell-based. Particulars: time 12-72 hrs.
Data set [19] shares this target. The data set can be described thus: Protac activity at cIAP/GPX4 in human HT-1080 cells assessed as degradation of GPX4 at 5 uM preincubated with MLN4924 for 4 hrs followed by compound addition and measured after 48 hrs by Western blot analysis. It counts as cell-based.
Data set [20] has as its system HT-1080. The data set can be described thus: Induction of ferroptosis in human HT-1080 cells assessed as lipid peroxide accumulation at 10 uM in presence of NAC by BODIPY 581/591C11 staining based analysis. It counts as functional, cell-based.
The test system of data set [21] is Mitochondrial membrane. The data set can be described thus: Induction of mitochondrial membrane potential loss in human HT-1080 cells at 10 uM incubated for 48 hrs in presence of DFOM by JC-1 staining based flow cytometry analysis. It counts as cell membranes.
In data set [22] the test system is HT-1080. The data set can be described thus: Synergistic antiproliferative activity against human HT-1080 cells assessed as induction of cell death at 3.75 uM incubated for 48 hrs in presence of FeCl2 by CCK-8 assay. The format is functional, cell-based.
Data set [23] concerns HT-1080. As to the kind of experiment: Induction of ferroptosis in human HT-1080 cells assessed as lipid peroxide accumulation at 10 uM in presence of Fer-1 by BODIPY 581/591C11 staining based analysis. It counts as functional, cell-based.
In data set [24] the test system is HT-1080. The data set can be described thus: Antiproliferative activity against human HT-1080 cells assessed as reduction in cell viability at 7.5 uM incubated for 48 hrs in presence of Fer-1 by CCK-8 assay. The format is functional, cell-based.
Data set [25] has as its system HEK-293T. As to the kind of experiment: Cytotoxicity against HEK293T cells assessed as reduction in cell viability at 40 uM incubated for 48 hrs by CCK-8 assay. It counts as toxicity, cell-based. Particulars: human.
The subject of data set [26] is HT-1080. As to the kind of experiment: Antiproliferative activity against human HT-1080 cells assessed as induction of cell death incubated for 48 hrs in presence of Z-VAD-FMK by CCK-8 assay. It counts as functional, cell-based.
Data set [27] has as its system HT-1080. As to the kind of experiment: Antiproliferative activity against human HT-1080 cells assessed as reduction in cell viability at 7.5 uM incubated for 48 hrs in presence of NAC by CCK-8 assay. The format is functional, cell-based.

Active and inactive are the calls of the source. The rule behind the calls is not given here.

The IC50 is the midpoint of a concentration-inhibition curve. As a reminder, the DC50 is the midpoint of the concentration-degradation curve. For orientation: Emax means the greatest response seen or fitted, relative to the assay's reference.

For the compound `COC(=O)c1ccc([C@H]2c3[nH]c4ccccc4c3C[C@H](C(=O)OC)N2C(=O)CCl)cc1`, the IC50 in data set [1] was 1550 nM. The IC50 at 48 h in data set [2] came out at 10800 nM. Moreover, the result in data set [3] was inactive.
Consider `COC(=O)c1ccc([C@H]2c3[nH]c4ccccc4c3C[C@H](C(=O)NCc3cn(CCCCCC(=O)N[C@H](Cc4ccccc4)[C@H](O)C(=O)N[C@@H](CC(C)C)C(=O)OC)nn3)N2C(=O)CCl)cc1`, for which the half-maximal degradation concentration (DC50) in data set [4] worked out at 4220 nM. Also, the Emax in [5] was 75%.
Consider `COC(=O)[C@H]1Cc2c([nH]c3ccccc23)[C@H](c2ccc(C(=O)NCc3cn(CCOCCNC(=O)CN4CCN(C(=O)N5C(c6ccc(OC)cc6OC(C)C)=N[C@H](c6ccc(Cl)cc6)[C@@H]5c5ccc(Cl)cc5)CC4=O)nn3)cc2)N1C(=O)CCl`, for which the Activity in data set [6] was determined as 60%.
For the compound `COC(=O)[C@H](CC(C)C)NC(=O)[C@@H](O)[C@@H](Cc1ccccc1)NC(=O)CCCCCCCn1cc(CNC(=O)c2ccc([C@H]3c4[nH]c5ccccc5c4C[C@H](C(=O)OC)N3C(=O)CCl)cc2)nn1`, the outcome in [7], in [8], in data set [9], in data set [11], in data set [13] and in data set [14] was inactive. Also, the result in data set [15], in data set [16], in [19], in data set [20], in [21] and in data set [23] was inactive. Besides, the result in data set [24] and in data set [27] was inactive. For the same compound, the Activity entry in data set [10] was “Dose-dependent-effect”; in [12], “Dose-dependent-effect”; in data set [18] it was “Time-dependent-effect”; in data set [25], “Toxic”. The 50% inhibitory concentration (IC50) in data set [1] is 2370 nM. In addition, in [4], the 50% degradation concentration (DC50) worked out at 1680 nM. In addition, the maximal effect (Emax) in data set [5] came out at 85%. The result in [17], in data set [22] and in data set [26] was Active.
